Experimental data from ChEMBL document CHEMBL1255236, “Hepatotoxicity observed in clinical trials of aplaviroc (GW873140)” (Antimicrob Agents Chemother, 2008).

What was measured:
[1] = AUC (0 to 24 hrs) in Human immunodeficiency virus 1 infected human at 800 mg/kg, QD; format: ADME, organism-based; set-up: time < 24 hr, dose 800 mg/kg; details: plasma
[2] = system: Rattus norvegicus; assay: Hepatotoxicity in rat assessed as increase in liver ALT level at >500 mg/kg/day; format: toxicity, organism-based; details: in vivo
[3] = Half life in healthy human at 200 to 800 mg/kg, BID; format: ADME, organism-based; set-up: dose 200-800 mg/kg; details: in vivo
[4] = AUC (0 to 24 hrs) in Human immunodeficiency virus 1 infected human at 600 mg/kg, BID; format: ADME, organism-based; set-up: time < 24 hr, dose 600 mg/kg; details: plasma
[5] = system: Monkey; assay: Hepatotoxicity in monkey assessed as increase in liver ALT level at 2000 mg/kg/day; format: toxicity, organism-based; details: cercopithecidae, in vivo
[6] = AUC (0 to 24 hrs) in Human immunodeficiency virus 1 infected human at 800 mg/kg, BID; format: ADME, organism-based; set-up: time < 24 hr, dose 800 mg/kg; details: plasma
[7] = AUC (0 to 24 hrs) in Human immunodeficiency virus 1 infected human at 400 mg/kg, BID; format: ADME, organism-based; set-up: time < 24 hr, dose 400 mg/kg; details: plasma
[8] = system: Human immunodeficiency virus 1; assay: Antiviral activity against Human immunodeficiency virus 1 infected in human assessed as log reduction in HIV-1 RNA level at 600 mg/kg, BID after 10 days; format: functional
[9] = system: Rattus norvegicus; assay: Hepatotoxicity in rat assessed as increase in liver bilirubin level at >500 mg/kg/day; format: toxicity, organism-based; details: in vivo
[10] = AUC (0 to 24 hrs) in Human immunodeficiency virus 1 infected human at 200 mg/kg, BID; format: ADME, organism-based; set-up: time < 24 hr, dose 200 mg/kg; details: plasma

In the case of `CCCCN1C(=O)[C@@H]([C@H](O)C2CCCCC2)NC(=O)C12CCN(Cc1ccc(Oc3ccc(C(=O)O)cc3)cc1)CC2` [APLAVIROC], the AUC at 24 h [1] is reported as 5840 ng·h/mL, the Activity [2] is reported as “Toxic” and the half-life [3] is reported as 3 h. The AUC at 24 h [4] was 2100 ng·h/mL, the Activity [5] was “Non-toxic” and the AUC at 24 h [6] was 3410 ng·h/mL. The AUC at 24 h [7] was 6060 ng·h/mL, the FC [8] was 1.66 and the Activity [9] was “Toxic”. The AUC at 24 h [10] was 2010 ng·h/mL.
